{"source": "patent US8247594B2", "about": "“Insecticidal compounds” (Syngenta Crop Protection LLC, priority 2007, dated 2012)", "key": {"Tetranychus urticae": {"system": "Tetranychus urticae", "test": "Tetranychus urticae (two-spotted spider mite) leaf disc spray test", "assay_type": "in vivo", "details": "application rate 200 ppm, sprayed bean leaf discs, mixed ages, 8 days; egg, larval and adult mortality", "excerpt": "Tetranychus Urticae (Two-Spotted Spider Mite): Bean leaf discs on agar in 24-well microtiter plates were sprayed with test solutions at an application rate of 200 ppm. After drying, the leaf discs are infested with mite populations of mixed ages. 8 days later, discs are checked for egg mortality, larval mortality, and adult mortality."}, "Myzus persicae": {"system": "Myzus persicae", "test": "Myzus persicae (green peach aphid) leaf disc spray test", "assay_type": "in vivo", "details": "application rate 200 ppm, sprayed sunflower leaf discs, mixed ages, 6 DAT; mortality", "description": "Myzus Persicae (Green Peach Aphid): Sunflower leaf discs were placed on agar in a 24-well microtiter plate and sprayed with test solutions at an application rate of 200 ppm. After drying, the leaf discs were infested with an aphid population of mixed ages. After an incubation period of 6 DAT, samples were checked for mortality."}}}
{"smiles": "N#Cc1ccc(C(=O)Nc2c(Br)cc(C(F)(C(F)(F)F)C(F)(F)F)cc2Br)cc1NC(=O)OCC(Cl)(Cl)Cl", "note": "[A11]", "values": [{"measurement": "control of Tetranychus urticae", "setting": "Tetranychus urticae", "value": "at least 80%"}]}
{"smiles": "CCc1cc(C(F)(C(F)(F)F)C(F)(F)C(F)(F)F)cc(CC)c1NC(=O)c1ccc(C#N)c(NC(=O)OCC(Cl)(Cl)Cl)c1", "note": "(centres unmarked) [A12]", "values": [{"measurement": "control of Myzus persicae", "setting": "Myzus persicae", "value": "at least 80%"}]}
